Laboratory results as given in PMC10205807, “Cross-species comparison in nonclinical pharmacokinetics of lenvatinib by a simple HPLC with ultraviolet detection” (Scientific Reports, 2023).

Experiments:
[1] = PK study in dogs (intravenous and oral); format: in vivo
Experimental: Male beagle dogs purchased from Marshall Farm USA Inc. (NY, USA) were used for the PK study. Dogs were 16 months old when the PK study was conducted. The PK study was performed in a cross-over design with 8 days interval between the doses. Dogs were fasted a day before the PK study and feeding was resumed 4 h postdose. Dosing solution of lenvatinib used in the dog PK study was the same as that in the rodent PK studies. Lenvatinib was intravenously administered at the dose of 3 mg/kg via cephalic vein. Oral administration of lenvatinib was conducted at 3 mg/kg by using a tube with a disposable syringe, and then the dosing tube was given ca. 30 mL of water to flush the remaining dosing solution in the tube. The number of dogs at each dose was four. Approximately 0.5 mL of blood samples were serially obtained from the cephalic vein using a heparinized syringe at pre-dose, and at 5, 15 and 30 min, and 1, 2, 4, 6, 8, 12 and 24 h post-dose. Plasma sample preparation and sample storage were the same as those in the rodent PK studies. PK parameters of lenvatinib were estimated by model independent analysis using a WinNonlin program (Version 4.1, Pharsight Corporation, Mountain View, CA). The time to reach the maximum plasma concentration (Tmax) and the maximum plasma concentration (Cmax) values were obtained directly from the plasma concentration data. Terminal half-life (T1/2) was calculated by ln2/ke, where ke is the slope of the regression line that fits the portion of the terminal phase (at least three time points) in the log-linear concentration–time curve. AUC0–t and AUMC0–t, the area under the concentration–time curves and the area under the first moment curve, from time = zero to time = t, respectively, were calculated using the lenvatinib concentrations in plasma by the linear/log trapezoidal method. AUC0–inf was calculated by AUC0–t + Ct/ke, and AUMC0–inf was AUMC0–t + Ct × t/ke + Ct/(ke)^2, where Ct is the last measurable concentration at time = t. The plasma concentration at time zero for the intravenous dose was extrapolated, while zero was used for the oral doses. Mean residence time (MRT), total plasma clearance (CLtot) and the volume of distribution at steady state (Vdss) were calculated by AUMC0–inf/AUC0–inf, Dose/AUC0–inf and CLtot × MRT, respectively. Oral bioavailability (F) was estimated by comparing dose-normalized AUC0–inf after oral (AUC0–inf.po) and intravenous (AUC0–inf.iv) administration as follows: F (%) = (AUC0–inf.po/AUC0–inf.iv) × 100.

plasma protein [2] = experiment: in vitro plasma protein binding, mice; format: in vitro ADME; settings: mouse
plasma protein [3] = experiment: in vitro plasma protein binding, rats; format: in vitro ADME
plasma protein [4] = experiment: plasma unbound fraction, humans; format: in vitro ADME; settings: human
[5] = Cross-species PK summary (mice, rats, dogs, monkeys); format: in vivo, and monkeys; settings: for bioavailability: rat, rats
Experimental: PK parameters of lenvatinib were estimated by model independent analysis using a WinNonlin program (Version 4.1, Pharsight Corporation, Mountain View, CA). The time to reach the maximum plasma concentration (Tmax) and the maximum plasma concentration (Cmax) values were obtained directly from the plasma concentration data. Terminal half-life (T1/2) was calculated by ln2/ke, where ke is the slope of the regression line that fits the portion of the terminal phase (at least three time points) in the log-linear concentration–time curve. AUC0–t and AUMC0–t, the area under the concentration–time curves and the area under the first moment curve, from time = zero to time = t, respectively, were calculated using the lenvatinib concentrations in plasma by the linear/log trapezoidal method. AUC0–inf was calculated by AUC0–t + Ct/ke, and AUMC0–inf was AUMC0–t + Ct × t/ke + Ct/(ke)^2, where Ct is the last measurable concentration at time = t. The plasma concentration at time zero for the intravenous dose was extrapolated, while zero was used for the oral doses. Mean residence time (MRT), total plasma clearance (CLtot) and the volume of distribution at steady state (Vdss) were calculated by AUMC0–inf/AUC0–inf, Dose/AUC0–inf and CLtot × MRT, respectively. Oral bioavailability (F) was estimated by comparing dose-normalized AUC0–inf after oral (AUC0–inf.po) and intravenous (AUC0–inf.iv) administration as follows: F (%) = (AUC0–inf.po/AUC0–inf.iv) × 100.
One of the typical approaches for predicting human PK from animal PK is empirical allometric scaling. As the CLtot of lenvatinib was relatively low and Vdss of lenvatinib was low to medium, thus it is theoretically preferable to correct by fp for both parameters. The CLtot divided by fp (CLtot/fp) or Vdss divided by fp (Vdss/fp) were plotted against body weight (BW) by log–log scale, and a linear regression was performed to estimate a slope and intercept for linear regression. The BW used in the calculation was 0.02, 0.2, 10, 5, and 70 kg for mice, rats, dogs, monkeys, and humans, respectively. CLtot and Vdss of lenvatinib in humans were predicted by using the regression line and the BW of humans. As no PK data of lenvatinib are available for CLtot and Vdss, which can be estimated only from intravenous administration PK study in humans, it is not possible to assess predictability of the allometric scaling for these two parameters of lenvatinib in humans. However, it is possible to predict exposure of lenvatinib after oral administration (AUCoral) in humans from the allometry scaling of hepatic intrinsic clearance (CLint). As lenvatinib is mainly cleared by the liver, AUCoral is estimated by Fa × Fg × Dose/(fp × CLint)[9], where Fa, Fg, fp, and CLint are absorption at the gastrointestinal (GI) tract, metabolic availability at the GI, unbound fraction in plasma, and hepatic intrinsic clearance, respectively. The CLint is thus estimated by Fa × Fg × Dose/(fp × AUCoral) in all the animal species including humans just from PK data from oral administration. The allometric scaling approach was applied for CLint in mice, rats, dogs, and monkeys. The logarithmic plot of CLint and BW was performed for a linear regression and a regression line [log (CLint) = slope × log (BW) + intercept], which was derived by logarithmic transformation of the equation CLint = a × BW^b was obtained. The CLint predicted from the allometric scaling was compared to the observed CLint after oral administration of lenvatinib at 9 mg in humans.

plasma protein [6] = experiment: in vitro plasma protein binding, monkeys; format: in vitro ADME
[7] = male, beagle, dog, plasma, intravenous 3 mg/kg
[8] = male, beagle, dog, plasma, oral 3 mg/kg

COc1cc2nccc(Oc3ccc(NC(=O)NC4CC4)c(Cl)c3)c2cc1C(N)=O [lenvatinib, Lenvatinib]
CLint (hepatic intrinsic clearance) ([1]; estimated from oral PK, Fa and Fg assumed unity, BW 10 kg): 61,500 mL/h | AUC(0-inf) [1, 7]: 8420 ± 927 ng·h/mL | MRT [1, 7]: 4.34 ± 0.36 h | half-life [1, 7]: 5.27 ± 0.83 h | C0 ([1]; male, beagle, dog, plasma, intravenous 3 mg/kg, extrapolated): 2440 ± 303 ng/mL | clearance ([1]; male, beagle, dog, plasma, intravenous 3 mg/kg, read-out: CLtot (converted)): 6.13 mL/min/kg | Vd ([1]; male, beagle, dog, plasma, intravenous 3 mg/kg, read-out: Vdss): 1.61 ± 0.249 L/kg | AUC(0-inf) [1, 8]: 5480 ± 1370 ng·h/mL | Cmax [1, 8]: 1270 ± 302 ng/mL | MRT [1, 8]: 4.81 ± 0.25 h | half-life [1, 8]: 4.76 ± 0.94 h | bioavailability ([1]; male, beagle, dog, plasma, oral 3 mg/kg vs intravenous 3 mg/kg, read-out: F (oral bioavailability)): 70.4 ± 23.1% | Tmax ([1]; male, beagle, dog, plasma, oral 3 mg/kg, median (range)): 2 h | fraction unbound (plasma protein [2]; plasma, mice, 0.3–30 μg/mL, read-out: average fp (unbound fraction in plasma)): 0.033 | fraction unbound at 0.3 μg/mL (plasma protein [2]; mice plasma, 0.3 μg/mL): 0.031 | fraction unbound at 0.3 μg/mL (plasma protein [3]; rat plasma, 0.3 μg/mL): 0.019 | fraction unbound (plasma protein [3]; rat, plasma, rats, 0.3–30 μg/mL, read-out: average fp (unbound fraction in plasma)): 0.02 | fraction unbound (plasma protein [4]): 0.0172 | availability in the intestine ([5]; calculated from CLtot (iv), blood-to-plasma partition, hepatic blood flow, and bioavailability): > 0.7 | clearance ([5]; mouse, dog, monkey, plasma, the other three species (mice, dogs, monkeys), intravenous 3 mg/kg, read-out: CLtot): 3.97 to 6.13 mL/min/kg | bioavailability ([5]; mouse, dog, monkey, plasma, oral, 3 mg/kg, mice, dogs, monkeys, read-out: average bioavailability in the four species): 70% | bioavailability ([5]; mouse, dog, monkey, plasma, po, 3 mg/kg, range over mice, dogs, and monkeys, read-out: oral bioavailability): 64.4 to 78.4% | bioavailability ([5]; mouse, dog, monkey, plasma, po, range over mice, dogs, and monkeys, read-out: oral bioavailability): 64 to 78% | fraction unbound at 0.3 μg/mL (plasma protein [6]; monkey plasma, 0.3 μg/mL): 0.039 | fraction unbound (plasma protein [6]; monkey, plasma, monkeys, 0.3–30 μg/mL, read-out: average fp (unbound fraction in plasma)): 0.0394
